From ChEMBL document CHEMBL3045012, “Quinoline-based azetidinone and thiazolidinone analogues as antimicrobial and antituberculosis agents” (2013)
Values after ≈ are worked out from the molar mass of the structure shown.

Key:
Assay type in all cases: functional
Aspergillus niger [1] = assay: Antimicrobial activity against Aspergillus niger MTCC 282 assessed as growth inhibition after 48 hr by agar streak dilution technique; conditions: MTCC 282, 48 h
Bacillus subtilis [2] = assay: Antimicrobial activity against Bacillus subtilis MTCC 430 assessed as diameter of growth inhibition zone after 24 hr by paper disk diffusion technique
Escherichia coli [3] = assay: Antimicrobial activity against Escherichia coli MTCC 739 assessed as diameter of growth inhibition zone after 24 hr by paper disk diffusion technique
[4] = system: Mycobacterium tuberculosis; assay: Antituberculosis activity against Mycobacterium tuberculosis H37Rv assessed as growth inhibition after 12 to 28 days by L-J MIC method; conditions: for MIC: Mycobacterium tuberculosis, H37Rv
Staphylococcus aureus [5] = assay: Antimicrobial activity against Staphylococcus aureus MTCC 96 assessed as growth inhibition after 24 hr by agar streak dilution technique; conditions: MTCC 96, 24 h
Pseudomonas aeruginosa [6] = assay: Antimicrobial activity against Pseudomonas aeruginosa MTCC 741 assessed as diameter of growth inhibition zone after 24 hr by paper disk diffusion technique
Bacillus subtilis [7] = assay: Antimicrobial activity against Bacillus subtilis MTCC 430 assessed as growth inhibition after 24 hr by agar streak dilution technique; conditions: MTCC 430, 24 h
Pseudomonas aeruginosa [8] = assay: Antimicrobial activity against Pseudomonas aeruginosa MTCC 741 assessed as growth inhibition after 24 hr by agar streak dilution technique; conditions: MTCC 741, 24 h
Escherichia coli [9] = assay: Antimicrobial activity against Escherichia coli MTCC 739 assessed as growth inhibition after 24 hr by agar streak dilution technique; conditions: MTCC 739, 24 h
Candida albicans [10] = assay: Antimicrobial activity against Candida albicans MTCC 183 assessed as growth inhibition after 48 hr by agar streak dilution technique; conditions: MTCC 183, 48 h
Aspergillus niger [11] = assay: Antimicrobial activity against Aspergillus niger MTCC 282 assessed as diameter of growth inhibition zone after 24 hr by paper disk diffusion technique
Candida albicans [12] = assay: Antimicrobial activity against Candida albicans MTCC 183 assessed as diameter of growth inhibition zone after 24 hr by paper disk diffusion technique
Staphylococcus aureus [13] = assay: Antimicrobial activity against Staphylococcus aureus MTCC 96 assessed as diameter of growth inhibition zone after 24 hr by paper disk diffusion technique

Compound | MIC (Aspergillus niger [1]) | diameter of the inhibition zone (DIZ) (Bacillus subtilis [2]) | diameter of the inhibition zone (DIZ) (Escherichia coli [3]) | growth inhibition (GI) [4] | MIC [4] | MIC (Staphylococcus aureus [5]) | diameter of the inhibition zone (DIZ) (Pseudomonas aeruginosa [6]) | MIC (Bacillus subtilis [7]) | MIC (Pseudomonas aeruginosa [8]) | MIC (Escherichia coli [9]) | MIC (Candida albicans [10]) | diameter of the inhibition zone (DIZ) (Aspergillus niger [11]) | diameter of the inhibition zone (DIZ) (Candida albicans [12]) | diameter of the inhibition zone (DIZ) (Staphylococcus aureus [13])
Cc1ccccc1N1C(=O)CSC1c1cc2ccccc2nc1Cl (centres undefined) | 100 µg/mL (≈ 282 µM) | <10 mm | <10 mm | 90% | 500 µg/mL (≈ 1410 µM) | 100 µg/mL (≈ 282 µM) | <10 mm | 100 µg/mL (≈ 282 µM) | 100 µg/mL (≈ 282 µM) | 100 µg/mL (≈ 282 µM) | 100 µg/mL (≈ 282 µM) | <10 mm | <10 mm | <10 mm
O=C1CSC(c2cc3ccccc3nc2Cl)N1c1cccc(Cl)c1 (centres undefined) | 50 µg/mL (≈ 133 µM) | 24 mm | 22 mm | 97% | 50 µg/mL (≈ 133 µM) | 25 µg/mL (≈ 66.6 µM) | 23 mm | 12.5 µg/mL (≈ 33.3 µM) | 25 µg/mL (≈ 66.6 µM) | 62.5 µg/mL (≈ 167 µM) | 100 µg/mL (≈ 266 µM) | 24 mm | 20 mm | 26 mm
O=C1CSC(c2cc3ccccc3nc2Cl)N1c1ccc([N+](=O)[O-])cc1 (centres undefined) | 12.5 µg/mL (≈ 32.4 µM) | 23 mm | 21 mm | 97% | 50 µg/mL (≈ 130 µM) | 12.5 µg/mL (≈ 32.4 µM) | 25 mm | 50 µg/mL (≈ 130 µM) | 12.5 µg/mL (≈ 32.4 µM) | 62.5 µg/mL (≈ 162 µM) | 25 µg/mL (≈ 64.8 µM) | 24 mm | 24 mm | 26 mm
NC(=O)c1cnccn1 [PYRAZINAMIDE] |  |  |  | 99% | 6.25 µg/mL (≈ 50.8 µM) |  |  |  |  |  |  |  |  | 
